Assay results published in patent US20210346359A1, “Use of CFTR Modulators For Treating Cerebrovascular Conditions” (Qanatpharma AG, priority 2018, published 2021).
“Also recorded” adds a separate entry of the source.

Tests used:
CFTR = CFTR (Mus musculus, UniProt P26361); assay: Western blot of CFTR protein in cerebral arteries of naïve mice treated in vivo; design: Cerebral artery lysates were prepared by grinding artery samples in lysis buffer; from tissue; host or cells: cerebral arteries of male wild-type C57BL/6N mice (naïve, heart failure or subarachnoid hemorrhage models); conditions: 3 mg/kg daily for 2 days, vs vehicle controls
Method: Western blots for CFTR were completed as previously described (12, 18). Cerebral artery lysates were prepared by grinding artery samples in lysis buffer containing 50 mM Tris (pH 7.3), 150 mM NaCl, 2 mM […], 0.1% Triton-X-100, 0.1% […] and protease inhibitors; the same lysis buffer was used to prepare cell culture lysates. Following lysis, the samples were centrifuged (10 minutes at 13,500 g; at 4° C.) to remove insoluble material. Immediately prior to polyacrylamide electrophoresis, additional SDS (to 2% final concentration), glycerol (to 2% final concentration), β-mercaptoethanol (to 2% final concentration) and dithiothreitol (2 mM final concentration) were added. Proteins were separated electrophoretically on 7% acrylamide gels and transferred onto polyvinylidene difluoride (PVDF) membranes. […]
The primary antibodies were conjugated with either peroxidase-labeled donkey anti-rabbit IgG (GE Healthcare Amersham (Piscataway, USA) cat# NA934) or peroxidase-labeled goat anti-mouse IgG (GE Healthcare Amersham cat# NA931) secondary antibodies. […] Developed films were evaluated densitometrically using “Image J” software (freely available from the NIH); digital images were evaluated with Image Lab software (Bio-Rad). […]

[1] = system: olfactory cerebral arteries; assay: Myogenic tone of isolated olfactory cerebral arteries after in vivo treatment; design: species or system mouse
Method: Induction of Subarachnoid Hemorrhage: A well-characterized model of experimental SAH (6) was used. Briefly, each mouse was anaesthetized (isoflurane) and its head was fixed in a stereotactic frame: a 7 mm incision was made along the midline of the anterior scalp and 0.9 mm hole drilled into the skull 4.5 mm anterior to the bregma. A spinal needle was advanced to the chiasmatic cistern: 80 μl of arterial blood was injected into the intracranial space over 10 seconds. […] Following injection, the scalp incision was closed. Buprenorphine (0.05 mg/kg; 0.5-1.0 ml volume) was administered twice/day (initiated immediately following the SAH surgical procedure). Sham-operated animals underwent an identical surgical procedure, with sterile saline injected instead of blood. Olfactory cerebral arteries were isolated at 2 days post-SAH induction.
Isolation and functional assessment of resistance arteries: Mouse olfactory (a first branch of the anterior cerebral artery) and PCAs were carefully dissected, cannulated onto micropipettes, stretched to their in vivo lengths and pressurized to 45 mmHg, as previously described (3,6); mouse skeletal muscle resistance arteries were dissected from the cremaster muscle, cannulated and pressurized to 60 mmHg. All functional experiments were conducted in 3-morpholinopropanesulfonic acid (MOPS) buffered saline at 37° C. with no perfusion. […]
Myogenic responses were elicited by step-wise 20 mmHg increases in transmural pressure from 20 mmHg to 80 mmHg (olfactory arteries) or 100 mmHg (posterior cerebral arteries and cremaster skeletal muscle resistance arteries). At each pressure step, vessel diameter (diaactive) was measured once a steady state was reached (5 min). Vessels requiring treatment (e.g., CFTR(inh)-172) were incubated with the reagent in MOPS for 30 min and myogenic responses were then assessed in the presence of that reagent. Following completion of all diaactive measurements, MOPS buffer was replaced with a Ca^2+-free version and maximal passive diameter (diamax) was recorded at each pressure step.
Myogenic tone was calculated as the percent constriction in relation to the maximal diameter at each respective transmural pressure: tone (% of diamax)=[(diamax−diaactive)/diamax]×100, where diaactive is the vessel diameter in MOPS containing Ca^2+ and diamax is the diameter in Ca^2+-free MOPS. Analyses of vasomotor responses to phenylephrine used the same calculation, only in this case, diaactive represents the vessel diameter at steady state following application of the given agent and diamax represents the maximal diameter measured under Ca^2+-free conditions.

[2] = arteries from SAH mice, in vivo 3 mg/kg daily for 2 days

CFTR, sequence (P26361 whole entry): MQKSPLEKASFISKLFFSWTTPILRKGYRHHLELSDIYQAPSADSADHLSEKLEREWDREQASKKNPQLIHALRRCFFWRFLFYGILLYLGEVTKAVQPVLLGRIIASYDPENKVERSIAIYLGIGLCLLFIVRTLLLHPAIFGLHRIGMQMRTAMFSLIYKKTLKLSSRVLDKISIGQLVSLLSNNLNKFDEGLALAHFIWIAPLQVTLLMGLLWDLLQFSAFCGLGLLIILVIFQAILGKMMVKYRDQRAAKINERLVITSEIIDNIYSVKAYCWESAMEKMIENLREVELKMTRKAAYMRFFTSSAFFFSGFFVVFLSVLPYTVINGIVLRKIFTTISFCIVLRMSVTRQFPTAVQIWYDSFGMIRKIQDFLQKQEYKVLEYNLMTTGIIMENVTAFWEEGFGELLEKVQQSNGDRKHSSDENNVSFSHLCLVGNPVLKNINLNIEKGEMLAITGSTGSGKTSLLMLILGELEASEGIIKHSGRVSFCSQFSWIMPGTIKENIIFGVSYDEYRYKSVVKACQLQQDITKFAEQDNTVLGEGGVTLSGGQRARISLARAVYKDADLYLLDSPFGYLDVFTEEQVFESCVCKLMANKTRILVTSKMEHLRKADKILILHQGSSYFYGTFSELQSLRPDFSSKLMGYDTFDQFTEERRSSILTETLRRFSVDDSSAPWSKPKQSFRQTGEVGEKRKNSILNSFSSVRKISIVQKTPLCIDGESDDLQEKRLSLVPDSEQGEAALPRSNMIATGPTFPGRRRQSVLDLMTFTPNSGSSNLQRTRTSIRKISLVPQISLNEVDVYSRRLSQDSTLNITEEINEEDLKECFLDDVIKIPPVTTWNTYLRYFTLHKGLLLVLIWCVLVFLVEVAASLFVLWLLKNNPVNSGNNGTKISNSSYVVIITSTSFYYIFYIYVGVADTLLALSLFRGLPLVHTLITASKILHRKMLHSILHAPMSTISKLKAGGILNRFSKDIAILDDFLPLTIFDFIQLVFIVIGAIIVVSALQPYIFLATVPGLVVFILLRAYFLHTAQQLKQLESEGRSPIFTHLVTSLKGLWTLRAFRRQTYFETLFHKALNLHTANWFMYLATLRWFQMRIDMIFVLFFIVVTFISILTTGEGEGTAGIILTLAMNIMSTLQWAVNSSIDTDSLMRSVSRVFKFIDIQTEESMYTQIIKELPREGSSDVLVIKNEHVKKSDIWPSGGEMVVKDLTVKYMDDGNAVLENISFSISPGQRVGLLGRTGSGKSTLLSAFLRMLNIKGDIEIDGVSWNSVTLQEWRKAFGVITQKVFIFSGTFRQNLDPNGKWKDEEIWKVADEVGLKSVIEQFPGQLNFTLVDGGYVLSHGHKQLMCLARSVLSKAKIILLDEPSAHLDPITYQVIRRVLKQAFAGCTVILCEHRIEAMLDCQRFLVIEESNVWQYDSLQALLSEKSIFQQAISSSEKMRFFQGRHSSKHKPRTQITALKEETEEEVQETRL

Row | SMILES | CFTR protein expression in cerebral arteries (CFTR) | olfactory cerebral artery myogenic tone ([1]; arteries from CFTR knockout mice, in vivo 3 mg/kg daily for 2 days) | olfactory cerebral artery myogenic tone [1, 2] | olfactory cerebral artery myogenic tone ([1]; arteries from sham-operated mice, 3 mg/kg i.p. daily for 2 days, 3 mg/kg) | CFTR protein expression in cerebral arteries (CFTR; 3 mg/kg)
1 | O=C(Nc1ncc(C(c2ccccc2Cl)N2CCC(O)C2)s1)C1(c2ccc3c(c2)OCO3)CC1 (stereo not drawn) [C18, 1-(benzo[d][1,3]dioxol-5-yl)-N-(5-((2-chlorophenyl)(3-hydroxypyrrolidin-1-yl)methyl)thiazol-2-yl)cyclopropanecarboxamide] | higher | not susceptible; also recorded: not observed | normalizes; also recorded: reduces | does not affect; also recorded: does not alter | 
2 | Cc1ccc(NC(=O)C2(c3ccc4c(c3)OC(F)(F)O4)CC2)nc1-c1cccc(C(=O)O)c1 [lumacaftor] |  |  | normalizes; also recorded: reduces |  | increases CFTR protein expression; also recorded: higher
